Test results: US20100184699A1, “Peptide Derived From Prostate-Related Protein As Cancer Vaccine Candidate For Prostate Cancer Patient Who Is Positive For Hla-A3 Super-Type Allele Molecule” (priority 2005, published 2010)
“And” between values parts separate entries of the source, which are not always exact repeats. Identical values can stand only once.

Columns and labels:
[1] = test system: peptide-specific IgG in plasma of prostate cancer patients and healthy donors; assay: Detection of peptide-specific IgG in plasma by ELISA; assay type: binding, human; conditions: for IgG reactive to peptide in plasma: 1:100-diluted plasma; for frequency of detection of peptide-reactive IgG: plasma of prostate cancer patients, compared within PSA, PAP or PSMA peptides
[2] = test system: C1R-A11, -A31 or -A33 cells pulsed with corresponding peptide; assay: Induction of peptide-specific CTLs from PBMCs (IFN-γ ELISA); assay type: cell-based, human
[3] = Prostate cancer patient 10, A11
[4] = Prostate cancer patient 13, A11
[5] = Prostate cancer patient 14, A33
[6] = Prostate cancer patient 16, A33
[7] = Prostate cancer patient 19, A33
[8] = Prostate cancer patient 20, A33

Sequence | IgG reactive to peptide in plasma ([1]; Healthy donor 3, A31) | IgG reactive to peptide in plasma ([1]; Healthy donor 9, A11) | IgG reactive to peptide in plasma, Total (positive/tested) ([1]; Healthy donors) | IgG reactive to peptide in plasma ([1]; Prostate cancer patient 3, A31) | IgG reactive to peptide in plasma ([1]; Prostate cancer patient 4, A31) | IgG reactive to peptide in plasma ([1]; Prostate cancer patient 7, A11) | IgG reactive to peptide in plasma ([1]; Prostate cancer patient 8, A11) | IgG reactive to peptide in plasma ([1]; Prostate cancer patient 9, A11) | IgG reactive to peptide in plasma [1, 3] | IgG reactive to peptide in plasma [1, 4] | IgG reactive to peptide in plasma [1, 5] | IgG reactive to peptide in plasma [1, 6] | IgG reactive to peptide in plasma [1, 7] | IgG reactive to peptide in plasma [1, 8] | IgG reactive to peptide in plasma, Total (positive/tested) ([1]; Prostate cancer patients) | frequency of detection of peptide-reactive IgG [1] | Total (positive / tested) [2] | IgG reactive to peptide in plasma ([1]; Healthy donor 4, A31) | further results
GTLKKEGWR (PSMA 403-411) [PSMA-derived peptide] | + (IgG reactive to a corresponding peptide was judged to be positive when a difference of the optical density (OD) in a 1:100-diluted plasma was more than 100) | + (IgG reactive to a corresponding peptide was judged to be positive when a difference of the optical density (OD) in a 1:100-diluted plasma was more than 100) | 2/9 | + (IgG reactive to a corresponding peptide was judged to be positive when a difference of the optical density (OD) in a 1:100-diluted plasma was more than 100) | + (IgG reactive to a corresponding peptide was judged to be positive when a difference of the optical density (OD) in a 1:100-diluted plasma was more than 100) | + (IgG reactive to a corresponding peptide was judged to be positive when a difference of the optical density (OD) in a 1:100-diluted plasma was more than 100) | + (IgG reactive to a corresponding peptide was judged to be positive when a difference of the optical density (OD) in a 1:100-diluted plasma was more than 100) | + (IgG reactive to a corresponding peptide was judged to be positive when a difference of the optical density (OD) in a 1:100-diluted plasma was more than 100) | + (IgG reactive to a corresponding peptide was judged to be positive when a difference of the optical density (OD) in a 1:100-diluted plasma was more than 100) | + (IgG reactive to a corresponding peptide was judged to be positive when a difference of the optical density (OD) in a 1:100-diluted plasma was more than 100) | + (IgG reactive to a corresponding peptide was judged to be positive when a difference of the optical density (OD) in a 1:100-diluted plasma was more than 100) | + (IgG reactive to a corresponding peptide was judged to be positive when a difference of the optical density (OD) in a 1:100-diluted plasma was more than 100) | + (IgG reactive to a corresponding peptide was judged to be positive when a difference of the optical density (OD) in a 1:100-diluted plasma was more than 100) | + (IgG reactive to a corresponding peptide was judged to be positive when a difference of the optical density (OD) in a 1:100-diluted plasma was more than 100) | 19/20 | more frequently | 1/13 and 3/9 | – | IgG reactive to peptide in plasma ([1]; Prostate cancer patient 1, A31): + (IgG reactive to a corresponding peptide was judged to be positive when a difference of the optical density (OD) in a 1:100-diluted plasma was more than 100); IgG reactive to peptide in plasma ([1]; Prostate cancer patient 2, A31): + (IgG reactive to a corresponding peptide was judged to be positive when a difference of the optical density (OD) in a 1:100-diluted plasma was more than 100); IgG reactive to peptide in plasma ([1]; Prostate cancer patient 5, A31): + (IgG reactive to a corresponding peptide was judged to be positive when a difference of the optical density (OD) in a 1:100-diluted plasma was more than 100); IgG reactive to peptide in plasma ([1]; Prostate cancer patient 6, A31): + (IgG reactive to a corresponding peptide was judged to be positive when a difference of the optical density (OD) in a 1:100-diluted plasma was more than 100); IgG reactive to peptide in plasma ([1]; Prostate cancer patient 12, A11): + (IgG reactive to a corresponding peptide was judged to be positive when a difference of the optical density (OD) in a 1:100-diluted plasma was more than 100); IgG reactive to peptide in plasma ([1]; Prostate cancer patient 15, A33): + (IgG reactive to a corresponding peptide was judged to be positive when a difference of the optical density (OD) in a 1:100-diluted plasma was more than 100); IgG reactive to peptide in plasma ([1]; Prostate cancer patient 17, A33): + (IgG reactive to a corresponding peptide was judged to be positive when a difference of the optical density (OD) in a 1:100-diluted plasma was more than 100); IgG reactive to peptide in plasma ([1]; Prostate cancer patient 18, A33): + (IgG reactive to a corresponding peptide was judged to be positive when a difference of the optical density (OD) in a 1:100-diluted plasma was more than 100)
KIVIARYGK (PSMA 199-207) [PSMA-derived peptide] | – | – | 0/9 | – | – | – | – | – | – | – | – | – | – | + (IgG reactive to a corresponding peptide was judged to be positive when a difference of the optical density (OD) in a 1:100-diluted plasma was more than 100) | 1/20 | less frequently | 0/13 and 4/9 | – | –
LFLLFFWLDR (PAP 19-28) [PAP-derived peptide] | – | – | – | – | – | – | – | – | – | – | – | – | – | – | – | less frequently | 1/13 and 2/9 | – | –
LYDMSLLKNR (PSA 100-109) [PSA-derived peptide] | + (IgG reactive to a corresponding peptide was judged to be positive when a difference of the optical density (OD) in a 1:100-diluted plasma was more than 100) | + (IgG reactive to a corresponding peptide was judged to be positive when a difference of the optical density (OD) in a 1:100-diluted plasma was more than 100) | 4/9 | – | + (IgG reactive to a corresponding peptide was judged to be positive when a difference of the optical density (OD) in a 1:100-diluted plasma was more than 100) | + (IgG reactive to a corresponding peptide was judged to be positive when a difference of the optical density (OD) in a 1:100-diluted plasma was more than 100) | – | + (IgG reactive to a corresponding peptide was judged to be positive when a difference of the optical density (OD) in a 1:100-diluted plasma was more than 100) | + (IgG reactive to a corresponding peptide was judged to be positive when a difference of the optical density (OD) in a 1:100-diluted plasma was more than 100) | + (IgG reactive to a corresponding peptide was judged to be positive when a difference of the optical density (OD) in a 1:100-diluted plasma was more than 100) | + (IgG reactive to a corresponding peptide was judged to be positive when a difference of the optical density (OD) in a 1:100-diluted plasma was more than 100) | – | + (IgG reactive to a corresponding peptide was judged to be positive when a difference of the optical density (OD) in a 1:100-diluted plasma was more than 100) | – | 7/20 | more frequently | 1/13 and 3/9 | + (IgG reactive to a corresponding peptide was judged to be positive when a difference of the optical density (OD) in a 1:100-diluted plasma was more than 100) | IgG reactive to peptide in plasma ([1]; Healthy donor 2, A3): + (IgG reactive to a corresponding peptide was judged to be positive when a difference of the optical density (OD) in a 1:100-diluted plasma was more than 100)
QPWQVLVASR (PSA 36-45) [PSA-derived peptide] | – | – | 2/8 | – | – | – | – | – | – | – | – | – | – | – | 0/20 | less frequently | 1/13 and 1/9 | + (IgG reactive to a corresponding peptide was judged to be positive when a difference of the optical density (OD) in a 1:100-diluted plasma was more than 100) | IgG reactive to peptide in plasma ([1]; Healthy donor 12, A31): + (IgG reactive to a corresponding peptide was judged to be positive when a difference of the optical density (OD) in a 1:100-diluted plasma was more than 100)
SLLKNRFLR (PSA 104-112) [PSA-derived peptide] | – | – | 0/9 | + (IgG reactive to a corresponding peptide was judged to be positive when a difference of the optical density (OD) in a 1:100-diluted plasma was more than 100) | – | – | + (IgG reactive to a corresponding peptide was judged to be positive when a difference of the optical density (OD) in a 1:100-diluted plasma was more than 100) | + (IgG reactive to a corresponding peptide was judged to be positive when a difference of the optical density (OD) in a 1:100-diluted plasma was more than 100) | + (IgG reactive to a corresponding peptide was judged to be positive when a difference of the optical density (OD) in a 1:100-diluted plasma was more than 100) | – | – | + (IgG reactive to a corresponding peptide was judged to be positive when a difference of the optical density (OD) in a 1:100-diluted plasma was more than 100) | + (IgG reactive to a corresponding peptide was judged to be positive when a difference of the optical density (OD) in a 1:100-diluted plasma was more than 100) | – | 5/20 | more frequently | 3/13 and 1/9 | – | –
